Results: patent US20240360165A1, “INHIBITORS OF CYCLIN DEPENDENT KINASE 7 (CDK7)” (Syros Pharmaceuticals, Inc., priority 2016, published 2024)
Like-named read-outs stand apart in the source and are kept apart here.

Columns and labels:
[1] = biological target: CDK7/Cyclin H/MAT1 complex (Homo sapiens, UniProt P50613); experiment: CDK7 inhibition assay (Caliper/LabChip EZ Reader kinase assay); assay type: biochemical; details: Table 1; CDK7/Cyclin H/MAT1 6 nM, ATP 2 mM, 35 min at 27° C.
How it was run: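 A Perkin Elmer Caliper/LabChip EZ Reader (Waltham, MA) platform served as the basis for this CDK7 kinase inhibition assay. The work was carried out by Biortus Biosciences, located in Jiangyin, Jiangsu Province, P.R. of China. Each CDK studied had its own kinase assay, and compounds were evaluated for their ability to block CDK7 activity.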

[2] = biological target: CDK9/Cyclin T1 complex (Homo sapiens, UniProt P50750); experiment: CDK9 inhibition assay (Caliper/LabChip EZ Reader kinase assay); assay type: biochemical; details: Table 1; CDK9/Cyclin T1 8 nM, ATP 2 mM, 15 min at 27° C.
How it was run: (§1)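 Caliper/LabChip EZ Reader mobility-shift assays. CDK9/Cyclin T1 at 8 nM with 2 μM 5-FAM-CDK9tide peptide and 10 mM MgCl2; CDK2/Cyclin E1 at 0.5 nM with 2 μM 5-FAM-CDK7tide and 2 mM MgCl2.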

[3] = biological target: T1, CDK12 (aa686-1082)/Cyclin K complex (Homo sapiens, UniProt Q9NYV4); experiment: CDK12 inhibition assay (Caliper/LabChip EZ Reader kinase assay); assay type: biochemical; details: Table 1; CDK12 (aa686-1082)/Cyclin K 50 nM, ATP 2 mM, 3 hr at 27° C.
T1 construct: CDK12 (aa686-1082)/Cyclin K complex

[4] = biological target: CDK2/Cyclin E1 complex (Homo sapiens, UniProt P24941); experiment: CDK2 inhibition assay (Caliper/LabChip EZ Reader kinase assay); assay type: biochemical; details: Table 1; CDK2/Cyclin E1 0.5 nM, ATP 2 mM, 35 min at 27° C.
How it was run: as §1

[5] = tested on: HCC70 cells; experiment: Inhibition of proliferation of HCC70 cells (CyQUANT Direct Cell Proliferation Assay, 72 hour); assay type: cell-based, human; details: read-out: Inhibition of Proliferation of HCC70 Cells (calculated IC50)
Method: HCC70 cells are a cell line derived from human triple negative breast cancer. […] Known CDK inhibitors dinaciclib or N-((1S,3R)-3-((5-chloro-4-(1H-indol-3-yl) pyrimidin-2-yl)amino)cyclohexyl)-5-((E)-4-(dimethylamino)but-2-enamido)picolinamide and triptolide were used as positive controls. […] The cells were cultured at 37° C. in a humidified chamber in the presence of 5% CO2. Proliferation assays were conducted over a 72 hour time period. CyQUANT® Direct Cell Proliferation Assay (Life Technologies, Chicago, IL USA) was used to assess the anti-proliferative effects of the compounds following manufacturer's directions and utilizing the reagents supplied with the CyQUANT® Direct Cell kit.

CDK9/Cyclin T1 complex, sequence (P50750 whole entry, species assumed): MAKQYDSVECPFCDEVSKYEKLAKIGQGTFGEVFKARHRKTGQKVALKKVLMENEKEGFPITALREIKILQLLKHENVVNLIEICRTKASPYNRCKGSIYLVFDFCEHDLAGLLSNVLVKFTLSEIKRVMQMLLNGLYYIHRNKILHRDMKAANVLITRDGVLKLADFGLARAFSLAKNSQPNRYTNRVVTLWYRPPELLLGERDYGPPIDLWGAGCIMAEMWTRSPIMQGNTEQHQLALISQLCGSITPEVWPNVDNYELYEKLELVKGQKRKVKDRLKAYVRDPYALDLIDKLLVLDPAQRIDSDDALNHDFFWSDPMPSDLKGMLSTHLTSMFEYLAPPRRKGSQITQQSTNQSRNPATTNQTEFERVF
CDK9/Cyclin T1 complex, sequence (O60563 whole entry partner, species assumed): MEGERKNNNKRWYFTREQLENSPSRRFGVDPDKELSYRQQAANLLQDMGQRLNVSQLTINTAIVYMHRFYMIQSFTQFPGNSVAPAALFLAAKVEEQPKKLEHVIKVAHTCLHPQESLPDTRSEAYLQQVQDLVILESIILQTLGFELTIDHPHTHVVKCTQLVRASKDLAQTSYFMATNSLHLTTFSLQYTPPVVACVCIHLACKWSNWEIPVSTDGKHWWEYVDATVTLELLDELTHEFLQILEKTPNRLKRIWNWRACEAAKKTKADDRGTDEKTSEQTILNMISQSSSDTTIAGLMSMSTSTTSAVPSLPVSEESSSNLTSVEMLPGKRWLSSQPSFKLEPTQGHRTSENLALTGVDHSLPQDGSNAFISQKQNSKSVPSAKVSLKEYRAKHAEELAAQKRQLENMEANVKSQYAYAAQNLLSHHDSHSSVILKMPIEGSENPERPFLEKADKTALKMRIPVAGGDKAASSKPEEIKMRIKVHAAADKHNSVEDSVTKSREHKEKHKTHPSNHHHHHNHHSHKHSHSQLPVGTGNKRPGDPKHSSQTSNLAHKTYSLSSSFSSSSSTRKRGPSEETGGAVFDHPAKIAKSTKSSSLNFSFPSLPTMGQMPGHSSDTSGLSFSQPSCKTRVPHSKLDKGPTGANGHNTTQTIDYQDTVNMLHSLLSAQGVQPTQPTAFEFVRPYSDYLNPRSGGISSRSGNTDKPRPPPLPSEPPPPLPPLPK
CDK7/Cyclin H/MAT1 complex, sequence (P50613 whole entry, species assumed): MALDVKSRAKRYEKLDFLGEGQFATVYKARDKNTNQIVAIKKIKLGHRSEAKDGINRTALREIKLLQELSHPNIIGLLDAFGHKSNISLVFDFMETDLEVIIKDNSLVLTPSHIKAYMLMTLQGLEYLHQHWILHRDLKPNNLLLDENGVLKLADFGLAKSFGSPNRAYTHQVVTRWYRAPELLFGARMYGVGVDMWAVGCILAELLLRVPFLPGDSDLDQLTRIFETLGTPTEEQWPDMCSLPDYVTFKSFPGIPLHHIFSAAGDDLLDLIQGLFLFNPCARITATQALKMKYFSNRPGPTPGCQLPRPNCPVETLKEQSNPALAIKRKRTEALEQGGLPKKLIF
CDK7/Cyclin H/MAT1 complex, sequence (P51946 whole entry partner, species assumed): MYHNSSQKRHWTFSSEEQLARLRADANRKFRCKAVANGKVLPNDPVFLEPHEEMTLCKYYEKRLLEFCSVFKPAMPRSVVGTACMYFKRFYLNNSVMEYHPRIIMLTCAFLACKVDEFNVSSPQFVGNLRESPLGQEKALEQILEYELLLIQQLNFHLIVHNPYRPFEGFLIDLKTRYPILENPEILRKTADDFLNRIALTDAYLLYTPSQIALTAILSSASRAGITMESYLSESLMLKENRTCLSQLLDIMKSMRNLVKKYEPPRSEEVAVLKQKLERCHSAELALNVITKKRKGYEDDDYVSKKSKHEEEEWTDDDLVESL
CDK7/Cyclin H/MAT1 complex, sequence (P51948 whole entry partner, species assumed): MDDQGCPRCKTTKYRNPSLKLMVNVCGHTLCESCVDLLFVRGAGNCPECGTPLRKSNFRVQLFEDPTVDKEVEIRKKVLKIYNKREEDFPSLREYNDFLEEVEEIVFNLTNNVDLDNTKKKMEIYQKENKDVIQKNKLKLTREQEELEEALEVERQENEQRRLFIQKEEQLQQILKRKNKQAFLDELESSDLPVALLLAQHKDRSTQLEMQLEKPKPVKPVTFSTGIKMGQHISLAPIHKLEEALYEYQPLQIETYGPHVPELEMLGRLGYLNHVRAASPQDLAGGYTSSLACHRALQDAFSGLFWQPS
T1 sequence (Q9NYV4 686-1082, species assumed): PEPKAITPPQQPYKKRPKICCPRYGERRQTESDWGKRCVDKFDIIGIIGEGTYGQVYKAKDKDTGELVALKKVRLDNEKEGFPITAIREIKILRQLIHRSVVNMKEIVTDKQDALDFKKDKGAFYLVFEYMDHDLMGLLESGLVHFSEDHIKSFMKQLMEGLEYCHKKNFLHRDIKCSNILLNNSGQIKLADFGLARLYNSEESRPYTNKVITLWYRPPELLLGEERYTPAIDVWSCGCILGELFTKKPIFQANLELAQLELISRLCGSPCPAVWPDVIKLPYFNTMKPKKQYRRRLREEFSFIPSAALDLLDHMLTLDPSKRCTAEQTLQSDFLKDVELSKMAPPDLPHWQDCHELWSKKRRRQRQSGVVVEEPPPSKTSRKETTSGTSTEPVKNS
T1 sequence (O75909 whole entry partner, species assumed, the tested form may be a part): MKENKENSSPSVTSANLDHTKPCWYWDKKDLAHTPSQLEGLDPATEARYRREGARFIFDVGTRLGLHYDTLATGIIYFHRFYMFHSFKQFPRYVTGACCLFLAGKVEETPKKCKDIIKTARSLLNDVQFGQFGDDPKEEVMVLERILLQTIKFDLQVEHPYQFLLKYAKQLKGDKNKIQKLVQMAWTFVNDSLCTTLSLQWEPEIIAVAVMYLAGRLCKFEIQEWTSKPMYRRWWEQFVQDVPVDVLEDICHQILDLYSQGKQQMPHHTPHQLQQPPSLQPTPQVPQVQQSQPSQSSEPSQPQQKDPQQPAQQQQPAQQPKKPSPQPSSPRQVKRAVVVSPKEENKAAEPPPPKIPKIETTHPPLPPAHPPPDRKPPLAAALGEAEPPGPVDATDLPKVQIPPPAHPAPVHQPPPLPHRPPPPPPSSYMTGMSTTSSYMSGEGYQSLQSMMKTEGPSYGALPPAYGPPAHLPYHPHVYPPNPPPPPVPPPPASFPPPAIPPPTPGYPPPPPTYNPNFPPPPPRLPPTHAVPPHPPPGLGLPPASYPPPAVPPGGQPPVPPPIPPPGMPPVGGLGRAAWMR

OCc1ncccc1-c1ccc2c(-c3nc(N[C@H]4CCCNC4)ncc3C(F)(F)F)c[nH]c2c1 [Compound 323]
IC50 [1]: < 0.02 µM
IC50 [2]: > 5 µM
IC50 [3]: 0.2 to 5 µM
IC50 [4]: 0.2 to 5 µM
IC50 [5]: 0.1 to 1 µM

OCc1cncc(-c2ccc3c(-c4nc(N[C@H]5CCCNC5)ncc4C(F)(F)F)c[nH]c3c2)c1 [Compound 318]
IC50 [1]: < 0.02 µM
IC50 [2]: 0.2 to 5 µM
IC50 [3]: 0.2 to 5 µM
IC50 [4]: 0.2 to 5 µM
IC50 [5]: 0.1 to 1 µM

CNC(=O)c1ccc2c(-c3nc(N[C@H]4CCCNC4)ncc3C(F)(F)F)c[nH]c2n1 [Compound 297]
IC50 [1]: < 0.02 µM
IC50 [2]: 0.2 to 5 µM
IC50 [3]: 0.2 to 5 µM
IC50 [4]: 0.2 to 5 µM
IC50 ([5]; Homo sapiens, HCC70, 72 h): < 0.1 µM

CN1CCC[C@H](Nc2ncc(C(F)(F)F)c(-c3c[nH]c4cc(S(C)(=O)=O)ccc34)n2)C1 [Compound 364, N-[(3S)-1-methyl-3-piperidyl]-4-(6-methylsulfonyl-1H-indol-3-yl)-5-(trifluoromethyl)pyrimidin-2-amine]
IC50 [1]: 0.02 to 0.2 µM
IC50 [2]: > 5 µM
IC50 [3]: > 5 µM
IC50 [4]: > 5 µM
IC50 ([5]; Homo sapiens, HCC70, 72 h): 1 to 5 µM

CNC(=O)c1cccc2c(-c3nc(N[C@H]4CCCNC4)ncc3C(F)(F)F)cn(COC)c12 [Compound 304]
IC50 [1]: > 5 µM
IC50 [2]: > 5 µM
IC50 [3]: > 5 µM
IC50 [4]: > 5 µM
IC50 [5]: 1 to 5 µM

CP(C)(=O)c1cccc2c(-c3nc(N[C@H]4CCCNC4)ncc3C(F)(F)F)c[nH]c12 (single isomer, unassigned) [Compound 353]
IC50 [1]: < 0.02 µM
IC50 [2]: > 5 µM
IC50 [3]: 0.2 to 5 µM
IC50 [4]: 0.2 to 5 µM
IC50 ([5]; Homo sapiens, HCC70, 72 h): < 0.1 µM

CC1CCNCC1Nc1ncc(C(F)(F)F)c(-c2c[nH]c3ccccc23)n1 (single isomer, unassigned) [Compound 372]
IC50 [1]: 0.02 to 0.2 µM
IC50 [2]: 0.2 to 5 µM
IC50 [3]: 0.2 to 5 µM
IC50 [4]: 0.2 to 5 µM
IC50 [5]: 0.1 to 1 µM

O=C(c1ccc2c(-c3nc(N[C@H]4CCCNC4)ncc3C(F)(F)F)c[nH]c2c1)N1CC[C@@](O)(C(F)(F)F)C1 (single isomer, unassigned) [Compound 300]
IC50 [1]: < 0.02 µM
IC50 [2]: 0.2 to 5 µM
IC50 [3]: 0.2 to 5 µM
IC50 [4]: 0.2 to 5 µM
IC50 ([5]; Homo sapiens, HCC70, 72 h): 0.1 to 1 µM

Cc1noc([C@H]2CC[C@H](Nc3ncc(C(F)(F)F)c(-c4c[nH]c5cc(C#N)ccc45)n3)CN2)n1 [Compound 358]
IC50 [1]: 0.02 to 0.2 µM
IC50 [2]: > 5 µM
IC50 [3]: > 5 µM
IC50 [4]: > 5 µM
IC50 ([5]; Homo sapiens, HCC70, 72 h): 0.1 to 1 µM

CC1(C)CC[C@H](Nc2ncc(C(F)(F)F)c(-c3c[nH]c4cc(C#N)ccc34)n2)CN1 [Compound 350, (S)-3-(2-((6,6-dimethylpiperidin-3-yl)amino)-5-(trifluoromethyl)pyrimidin-4-yl)-1H-indole-6-carbonitrile]
IC50 [1]: 0.02 to 0.2 µM
IC50 [2]: > 5 µM
IC50 [3]: 0.2 to 5 µM
IC50 [4]: > 5 µM
IC50 ([5]; Homo sapiens, HCC70, 72 h): 0.1 to 1 µM

FC(F)(F)c1cnc(N[C@H]2CCCNC2)nc1-c1c[nH]c2cc(-c3ccnc4ccccc34)ccc12 [Compound 339]
IC50 [1]: 0.02 to 0.2 µM
IC50 [2]: > 5 µM
IC50 [3]: 0.2 to 5 µM
IC50 [4]: > 5 µM
IC50 [5]: 1 to 5 µM

CCc1cnc(N[C@H]2CCCNC2)nc1-c1c[nH]c2c(S(C)(=O)=O)cccc12 [Compound 269, (S)-5-ethyl-4-(7-(methylsulfonyl)-1H-indol-3-yl)-N-(piperidin-3-yl)pyrimidin-2-amine]
IC50 [1]: < 0.02 µM
IC50 [2]: 0.2 to 5 µM
IC50 [3]: 0.2 to 5 µM
IC50 [4]: 0.2 to 5 µM
IC50 ([5]; Homo sapiens, HCC70, 72 h): 0.1 to 1 µM

NC(=O)c1cccc(-c2ccc3c(-c4nc(N[C@H]5CCCNC5)ncc4C(F)(F)F)c[nH]c3c2)c1 [Compound 314]
IC50 [1]: < 0.02 µM
IC50 [2]: 0.2 to 5 µM
IC50 [3]: 0.2 to 5 µM
IC50 [4]: 0.2 to 5 µM
IC50 [5]: 0.1 to 1 µM

O=C(c1ccc2c(-c3nc(N[C@H]4CCCNC4)ncc3C(F)(F)F)c[nH]c2c1)N1C[C@H](O)C(F)(F)C1 [Compound 308, [(4S)-3,3-difluoro-4-hydroxy-pyrrolidin-1-yl]-[3-[2-[[(3S)-3-piperidyl]amino]-5-(trifluoromethyl)pyrimidin-4-yl]-1H-indol-6-yl]methanone]
IC50 [1]: < 0.02 µM
IC50 [2]: 0.2 to 5 µM
IC50 [3]: 0.2 to 5 µM
IC50 [4]: 0.2 to 5 µM
IC50 ([5]; Homo sapiens, HCC70, 72 h): 0.1 to 1 µM

COCn1cc(-c2nc(N[C@H]3CCCNC3)ncc2C(F)(F)F)c2cccc(C#N)c21 [Compound 295]
IC50 [1]: 0.02 to 0.2 µM
IC50 [2]: > 5 µM
IC50 [3]: > 5 µM
IC50 [4]: > 5 µM
IC50 [5]: 1 to 5 µM

CC1(O)CCN(C(=O)c2ccc3c(-c4nc(N[C@H]5CCCNC5)ncc4C(F)(F)F)c[nH]c3c2)CC1 [Compound 282, (4-hydroxy-4-methyl-1-piperidyl)-[3-[2-[[(3S)-3-piperidyl]amino]-5-(trifluoromethyl)pyrimidin-4-yl]-1H-indol-6-yl] methanone]
IC50 [1]: < 0.02 µM
IC50 [2]: > 5 µM
IC50 [3]: 0.2 to 5 µM
IC50 [4]: 0.2 to 5 µM
IC50 ([5]; Homo sapiens, HCC70, 72 h): 0.1 to 1 µM

CN(C)S(=O)(=O)c1ccc2c(-c3nc(N[C@H]4CCCNC4)ncc3C(F)(F)F)c[nH]c2c1 [Compound 357, N,N-dimethyl-3-[2-[[(3S)-3-piperidyl]amino]-5-(trifluoromethyl)pyrimidin-4-yl]-1H-indole-6-sulfonamide]
IC50 [1]: < 0.02 µM
IC50 [2]: 0.2 to 5 µM
IC50 [3]: 0.2 to 5 µM
IC50 [4]: 0.2 to 5 µM
IC50 ([5]; Homo sapiens, HCC70, 72 h): 1 to 5 µM

[O-][S+](c1ccc2c(-c3nc(N[C@H]4CCCNC4)ncc3C(F)(F)F)c[nH]c2c1)C(F)F (stereo partly drawn) [Compound 380, 4-[6-(difluoromethylsulfinyl)-1H-indol-3-yl]-N-[(3S)-3-piperidyl]-5-(trifluoromethyl) pyrimidin-2-amine]
IC50 [1]: < 0.02 µM
IC50 [2]: 0.2 to 5 µM
IC50 [3]: 0.2 to 5 µM
IC50 [4]: 0.2 to 5 µM
IC50 ([5]; Homo sapiens, HCC70, 72 h): < 0.1 µM

CC[C@@]1(O)CCN(C(=O)c2ccc3c(-c4nc(N[C@H]5CCCNC5)ncc4C(F)(F)F)c[nH]c3c2)C1 (single isomer, unassigned) [Compound 309]
IC50 [1]: 0.02 to 0.2 µM
IC50 [2]: > 5 µM
IC50 [3]: 0.2 to 5 µM
IC50 [4]: > 5 µM
IC50 ([5]; Homo sapiens, HCC70, 72 h): 1 to 5 µM

N#Cc1ccc2c(-c3nc(N[C@H]4CCC5(CCC5)NC4)ncc3C(F)(F)F)c[nH]c2c1 (single isomer, unassigned) [Compound 378]
IC50 [1]: 0.02 to 0.2 µM
IC50 [2]: > 5 µM
IC50 [3]: > 5 µM
IC50 [4]: > 5 µM
IC50 ([5]; Homo sapiens, HCC70, 72 h): 1 to 5 µM

CCc1cnc(N[C@H]2CCCNC2)nc1-c1c[nH]c2c(F)c(C#N)ccc12 [Compound 360, 3-[5-ethyl-2-[[(3S)-3-piperidyl]amino]pyrimidin-4-yl]-7-fluoro-1H-indole-6-carbonitrile]
IC50 [1]: 0.02 to 0.2 µM
IC50 [2]: > 5 µM
IC50 [3]: > 5 µM
IC50 [4]: > 5 µM
IC50 ([5]; Homo sapiens, HCC70, 72 h): 1 to 5 µM

CC(=O)c1ccc2c(-c3nc(N[C@H]4CCCNC4)ncc3C(F)(F)F)c[nH]c2c1 [Compound 359, 1-[3-[2-[[(3S)-3-piperidyl]amino]-5-(trifluoromethyl)pyrimidin-4-yl]-1H-indol-6-yl]ethanone]
IC50 [1]: < 0.02 µM
IC50 [2]: 0.2 to 5 µM
IC50 [3]: 0.2 to 5 µM
IC50 [4]: 0.2 to 5 µM
IC50 ([5]; Homo sapiens, HCC70, 72 h): < 0.1 µM

CC1(C)CNC[C@@H](Nc2ncc(C(F)(F)F)c(-c3c[nH]c4cc(S(C)(=O)=O)ccc34)n2)C1 [Compound 376, N-[(3S)-5,5-dimethyl-3-piperidyl]-4-(6-methylsulfonyl-1H-indol-3-yl)-5-(trifluoromethyl) pyrimidin-2-amine]
IC50 [1]: 0.02 to 0.2 µM
IC50 [2]: > 5 µM
IC50 [3]: 0.2 to 5 µM
IC50 [4]: 0.2 to 5 µM
IC50 ([5]; Homo sapiens, HCC70, 72 h): 0.1 to 1 µM
